These results are taken from patent US10581022B2, “Polymerizable liquid crystal compound, composition, liquid crystal polymerization film-kind thereof and use thereof” (JNC CORPORATION, priority 2015, dated 2020).

The series is described as follows: Solubility of compound in solvent. The series is classed as physicochemical. On the set-up: key: Good: represents that the compound was completely dissolved; Poor: represents that an insoluble matter remained. As to conditions: 40° C., after 30 minutes, visual. Here is the method:
With regard to various solvents, a specific amount of compound (1-1-1-1) was added to various solvents each, and the resulting mixture was warmed in warm water at 40° C., and an aspect after 30 minutes was visually confirmed. A similar method was tried in compound (1-1-2-1), compound (C-1) and compound (C-2) in place of compound (1-1-1-1).
An amount of the compound added as described in Table 4 is expressed in terms of a relative value when a total weight of the solvent and the compound is taken as 100% by weight. A term “Good” in Table 4 represents that the compound was completely dissolved, and a term “Poor” in Table 4 represents that an insoluble matter remained.

Turning to `C=CC(=O)OCCCCOc1ccc(OC(=O)C2CCC(C(=O)Oc3ccc(OC(=O)C4CCC(C(=O)Oc5ccc(OCCCCOC(=O)C=C)cc5)CC4)c(C=NNc4nc5ccccc5s4)c3)CC2)cc1` (centres unmarked) [Compound (C-2)], under “15% by weight of compound”, the “solubility in 2-acetoxy-1-methoxypropane” value is “Poor”, the “solubility in 4-methyl-2-pentanone” value was “Poor”, the solubility in cyclohexanone result was “Good” and the solubility in methoxybenzene entry is “Good”. Where the note is “30% by weight of compound”, the “solubility in 2-acetoxy-1-methoxypropane” value was “Poor”, the “solubility in 4-methyl-2-pentanone” value is “Poor”, the solubility in cyclohexanone result is listed as “Poor” and the solubility in methoxybenzene result is given as “Poor”.

Regarding `C=CC(=O)OCCCCCCOc1ccc(CCC(=O)O[C@H]2CC[C@H](C(=O)Oc3ccc(OC(=O)[C@H]4CC[C@H](OC(=O)CCc5ccc(OCCCCCCOC(=O)C=C)cc5)CC4)c4nc(-c5ccccc5)cnc34)CC2)cc1` [Compound (1-1-1-1)], where the note is “15% by weight of compound”, the “solubility in 2-acetoxy-1-methoxypropane” value is “Poor”, the “solubility in 4-methyl-2-pentanone” value was “Poor”, the solubility in cyclohexanone result was “Good” and the solubility in methoxybenzene result was “Good”. In addition, where the note is “30% by weight of compound”, the “solubility in 2-acetoxy-1-methoxypropane” value is on record as “Poor”, the “solubility in 4-methyl-2-pentanone” value is reported as “Poor”, the solubility in cyclohexanone result was “Good” and the solubility in methoxybenzene result was “Good”.

On to `C=CC(=O)OCCCCOc1ccc(OC(=O)[C@H]2CC[C@H](C(=O)Oc3ccc(OC(=O)[C@H]4CC[C@H](C(=O)Oc5ccc(OCCCCOC(=O)C=C)cc5)CC4)c4sc(-c5ccccc5)nc34)CC2)cc1` [Compound (C-1)], for which, under “15% by weight of compound”, the “solubility in 2-acetoxy-1-methoxypropane” value is recorded as “Poor”, the “solubility in 4-methyl-2-pentanone” value is listed as “Poor”, the solubility in cyclohexanone entry is on record as “Good” and the solubility in methoxybenzene entry is “Good”. For the same compound, under “30% by weight of compound”, the “solubility in 2-acetoxy-1-methoxypropane” value is “Poor”, the “solubility in 4-methyl-2-pentanone” value is on record as “Poor”, the solubility in cyclohexanone entry is “Poor” and the solubility in methoxybenzene result is listed as “Poor”.

`C=CC(=O)OCCCCCCOc1ccc(CCC(=O)O[C@H]2CC[C@H](C(=O)Oc3ccc(OC(=O)[C@H]4CC[C@H](OC(=O)CCc5ccc(OCCCCCCOC(=O)C=C)cc5)CC4)c4nc(-c5ccccc5)c(C)nc34)CC2)cc1` [Compound (1-1-2-1)]: where the note is “15% by weight of compound”, the “solubility in 2-acetoxy-1-methoxypropane” value is given as “Good”, the “solubility in 4-methyl-2-pentanone” value is “Good”, the solubility in cyclohexanone result is on record as “Good” and the solubility in methoxybenzene entry is “Good”. Further, for the setting “30% by weight of compound”, the “solubility in 2-acetoxy-1-methoxypropane” value was “Poor”, the “solubility in 4-methyl-2-pentanone” value is listed as “Poor”, the solubility in cyclohexanone entry is “Good” and the solubility in methoxybenzene result is listed as “Good”.
